Assay results: patent US6852751B2, “Difluorobutyric acid metalloprotease inhibitors” (The Procter & Gamble Company, priority 2000, dated 2005)

System: human subject suffering from rheumatoid arthritis
Assay: Treatment of a human subject with rheumatoid arthritis, oral tablets (Example A)
Format: in vivo
Conditions: tablet with 15 mg compound, three tablets per day orally for 2 years
Method: A tablet composition for oral administration, according to the present invention, is made comprising:
A human subject weighing 60 kg (132 lbs), suffering from rheumatoid arthritis, is treated by a method of this invention. Specifically, for 2 years, a regimen of three tablets per day is administered orally to said subject.

COc1ccc(-c2ccc(C(F)(F)CCC(=O)O)cc2)cc1 [Example 1, 4,4-Difluoro-4-(4′-methoxy-biphenyl-4-yl)-butyric Acid]
examination at the end of the treatment period: inflammation, mobility, pain: reduced inflammation and improved mobility without concomitant pain
